From patent US20100041694A1, “AGRICULTURAL COMPOSITION FOR CONTROLLING OR PREVENTING PLANT DISEASES CAUSED BY PLANT PATHOGENIC MICROBES” (Sumitomo Chemical Company, Limited, priority 2007, published 2010)

Columns and labels:
Magnaporthe grisea = type: in vivo; conditions: rice (Nihonbare), flowable formulation 500 ppm foliage application; five days after the inoculation
Plasmopara viticola = experiment: Treating grape downy mildew, foliage application; type: in vivo; conditions: grape (Berry-A), infected nursery plants, flowable formulation 500 ppm foliage application after inoculation (curative)
Procedure: Test Regarding Effects of Treating Grape Downy Mildew (Plasmopara viticola)
A plastic pot was filled with sandy soil, and grape (variety: Berry-A) was then disseminated. The grape plants were allowed to grow in a green house for 40 days. A water suspension of zoosporangium of Plasmopara viticola was inoculated to the aforementioned pot by spaying it. Thereafter, the grape plants were left at 23° C. at a high humidity for 1 day, and they were then air-dried, so as to obtain grape downy mildew-infected nursery plants. The aforementioned flowable formulation comprising compound 189 was set at a predetermine concentration (500 ppm) by diluting with water, and it was then subjected to foliage application such that it could be sufficiently attached to the leaves of the aforementioned nursery grape plants. After completion of the foliage application, the plants were subjected to air-drying, and they were then left at 23° C. in a green house for 5 days. Thereafter, the plants were further left at 23° C. at a high humidity for 1 day. Thereafter, the infected areas thereof were examined.

Structure (SMILES): O=C(NCc1ccc(OC(F)F)cc1)c1ccc2ncccc2c1 [Compound 56]
- infected areas of treated plants relative to infected areas of untreated plants (Magnaporthe grisea): ≤ 30%

Structure (SMILES): Cc1ccc(CNC(=O)c2ccc3ncsc3c2)cc1 [Compound 189]
- infected areas of treated plants relative to infected areas of untreated plants (Plasmopara viticola): ≤ 10%
